In US5827849A, “Cyclic dericatives, pharmaceutical compositions containing these compounds and processes for preparing them” (Karl Thomae GmbH, priority 1993, dated 1998):
Counter-ions that a name gives are not always drawn. Like-named read-outs stand apart in the source and are kept apart here.

Tests used:
[1] = test system: Thrombocyte aggregation (collagen-induced); assay: Collagen-induced platelet aggregation in platelet-rich plasma (Born and Cross method); format: cell-based; details: Homo sapiens, 10 min, 10 minutes incubation at 37° C., read-out: Inhibition of platelet aggregation EC50
Experimental: 2. Antithrombotic activity Thrombocyte aggregation is measured using the Born and Cross method (J. Physiol. 170: 397 (1964)) in platelet-rich plasma taken from healthy volunteers. To inhibit coagulation the blood is mixed with 3.14% sodium citrate in a ratio by volume of 1:10. Collagen-induced aggregation The pattern of the decrease in optical density of the platelet suspension is photometrically measured and recorded after the addition of the aggregation-triggering substance. The rate of aggregation is determined from the angle of inclination of the density curve. The point on the curve where there is maximum light transmittance is used to calculate the optical density. The amount of collagen used is as small as possible but sufficient to produce an irreversible reaction curve. Standard commercial collagen produced by Hormonchemie of Munich is used. Before the addition of the collagen the plasma is incubated for 10 minutes with the test substance at 37° C. From the measurements obtained, an EC50 is determined graphically, indicating a 50% change in the optical density in terms of the inhibition of aggregation. B. Antithrombotic effect Platelet aggregation is measured by the method of Born and Cross (J. Physiol. 170, 397 (1964)) in platelet-rich plasma from healthy test subjects. For anticoagulation, sodium citrate 3.14% is added to the blood in the ratio 1:10 by volume. Collagen-induced aggregation The course of the decrease in optical density of the platelet suspension is measured and recorded photometrically after addition of the aggregation-inducing substance. The rate of aggregation is established from the angle of inclination of the density plot. The point on the plot at which the transmission of light is a maximum is used to calculate the optical density. The amount of collagen is chosen to be as small as possible but sufficient for the reaction plot to have an irreversible course. The collagen commercially obtainable from Hormonchemie, Munich, is used. Before the addition of collagen the plasma is in each case incubated with the substance at 37° C. for 10 minutes. An EC50 which relates to a 50% change in the optical density in the sense of inhibition of aggregation is determined graphically from the measured results.

Human thrombocytes = assay: Inhibition of the binding of 3H-BIBU 52 to human thrombocytes (platelets); details: 20 minutes
Experimental: 1. Inhibition of the binding of ^3 H-BIBU 52 to Human thrombocytes […] Case 5/1093-FL) and various concentrations of the test substance. The free and bound ligand are separated by centrifuging and quantitatively measured by scintillation counting. From the measurements obtained the inhibition of ^3 H-BIBU 52 binding caused by the test substance is determined. In order to do this, donor blood is taken from an anticubital vein and anti-coagulated with trisodium citrate (final concentration 13 mM). The blood is centrifuged for 10 minutes at 170×g and the supernatant platelet-rich plasma (PRP) is removed. The remaining blood is centrifuged vigorously once more in order to recover plasma. The PRP is diluted with autologous plasma 1:10. 750 μl are incubated for 20 minutes at ambient temperature with 50 μl of physiological saline solution, 100 μl of test substance solution, 50 μl of ^14 C-sucrose (3700 Bq) and 50 μl of ^3 H-BIBU 52 (final concentration: 5 nM). In order to measure the non specific binding, 5 μl of BIBU 52 (final concentration 30 μM) are used instead of the test substance. […] The pellet is dissolved in 500 μl of 0.2N NaOH, 450 μl are mixed with 2 ml of scintallator and 25 μl of 5N HCl, and measured. The residual plasma remaining in the pellet is determined from the ^14 C-content, and the bound ligand is determined from the ^3 H-measurement. After substracting the non specific binding, the pellet activity is plotted against the concentration of the test substance and the concentration for 50% inhibition of binding is determined. A. Inhibition of the binding of ^3 H-BIBU 52 to human platelets […] The free and bound ligand is separated by centrifugation and determined quantitatively by scintillation counting. The inhibition of ^3 H-BIBU 52 binding by the test substance is determined from the measurements. For this purpose, donor blood is taken from an antecubital vein and anticoagulated with trisodium citrate (final concentration 13 mM). The blood is centrifuged at 170×g for 10 minutes, and the supernatant platelet-rich plasma (PRP) is removed. The remaining blood is thoroughly centrifuged once again to obtain plasma. The PRP is diluted 1:10 with autologous plasma. […] are incubated with […] of physiological saline, […] of test substance solution, […] of ^14 C-sucrose (3700 Bq) and 50 ml of ^3 H-BIBU 52 (final concentration: 5 nM) at room temperature for 20 minutes. To measure the nonspecific binding, 5 ml of BIBU 52 (final concentration: […]) are used in place of the test substance. […] The pellet is dissolved in 500 ml of 0.2N NaOH, and 450 ml are mixed with 2 ml of scintillator and 25 ml of 5N HCl and measured. The remaining plasma still present in the pellet is determined from the ^14 C content, and the bound ligand is determined from the ^3 H measurement. After subtraction of the nonspecific binding, the activity in the pellet is plotted against the concentration of test substance, and the concentration for 50% inhibition of binding is found.

[2] = test system: collagen-induced thrombocyte aggregation; assay: Inhibition of collagen-induced thrombocyte aggregation ex vivo after oral administration; format: in vivo; details: Rhesus monkeys; oral administration of 1 mg/kg
[3] = platelet-rich plasma of healthy volunteers, compounds of general formula I
[4] = human thrombocytes in plasma, 3H-BIBU 52 5 nM, ambient temperature, read-out: 3H-BIBU 52-binding test IC50
[5] = platelet-rich plasma from healthy test subjects, compounds of general formula XXI
[6] = human platelets in plasma, 3H-BIBU 52 5 nM replaces 125I-fibrinogen, room temperature, read-out: Fibrinogen binding assay IC50

Structure (SMILES): O=C(O)CCc1ccc(N2CCN([C@@H]3CC[C@H]4CNCC[C@@H]4C3)C2=O)cc1 (relative stereo) [9(1)]
- EC50 [1, 3]: 990 nM
- IC50 (Human thrombocytes; [4]): 760 nM

Structure (SMILES): O=C(O)CCc1ccc(-n2ccn(-c3ccc4cnccc4c3)c2=O)cc1 [2(1), 1-[4-(2-carboxyethyl)phenyl]-3-(isoquinolin-6-yl)-3H-imidazol-2-one]
- EC50 [1, 3]: > 10000 nM
- IC50 (Human thrombocytes; [4]): 5400 nM

Structure (SMILES): O=C(O)CCc1ccc(N2CCN(c3ccc4c(c3)CCNC4)C2=O)cc1 [2(2), 1-[4-(2-carboxyethyl)phenyl]-3-(1,2,3,4-tetrahydroisoquinolin-6-yl)-imidazolidin-2-one]
- EC50 [1, 3]: 40 nM
- IC50 (Human thrombocytes; [4]): 24 nM

Structure (SMILES): CN1CCc2ccc(N3CCN([C@H]4CC[C@H](OCC(=O)O)CC4)C3=O)cc2CC1 [19(1), 1-[trans-4-[(carboxymethyl)oxy]cyclohexyl]-3-(3-methyl-2,3,4,5-tetrahydro-1H-3-benzazepin-7-yl)-imidazolidin-2-one-hydrochloride×NaCl×0.5H2 O]
- EC50 [1, 3]: 350 nM
- IC50 (Human thrombocytes; [4]): 120 nM

Structure (SMILES): CN1CCc2ccc(N3CC(=O)N([C@H]4CC[C@H](CCC(=O)O)CC4)C3=O)cc2CC1 [19(3), 3-[trans-4-(2-carboxyethyl)cyclohexyl]-1-(3-methyl-2,3,4,5-tetrahydro-1H-3-benzazepin-7-yl)-hydantoin-hydrochloride]
- EC50 [1, 3]: 430 nM
- IC50 (Human thrombocytes; [4]): 81 nM

Structure (SMILES): CCN1CCc2cc(N3CCN([C@H]4CC[C@H](CCC(=O)O)CC4)C3=O)cnc2CC1 [32 (1), 1-[trans-4-(2-Carboxyethyl)cyclohexyl]-3-(7-ethyl-6,7,8,9-tetrahydro-5H-pyrido[2,3-d]azepin-3-yl)imidazolidin-2-one×1 H2 O]
- EC50 [1, 5]: 310 nM
- IC50 (Human thrombocytes; [6]): 250 nM

Structure (SMILES): CCN1CCc2cnc(N3CCN(C4CCC(CCC(=O)O)CC4)C3=O)cc2CC1 (stereo not drawn) [32 (2), 1-[trans-4-(2-carboxyethyl)cyclohexyl]-3-(7-ethyl-6,7,8,9-tetrahydro-5H-pyrido[3,4-d]imidazolidin-2one]
- EC50 [1, 5]: 2300 nM
- IC50 (Human thrombocytes; [6]): 1000 nM

Structure (SMILES): O=C(O)CC[C@H]1CC[C@H](N2CCN(c3ccc4c(n3)CCNCC4)C2=O)CC1 [32 (3), 1-[trans-4-(2-Carboxyethyl)cyclohexyl]-3-(6,7,8,9-tetrahydro-5H-pyrido[2,3-d]azepin-2-yl)imidazolidin-2-one]
- EC50 [1, 5]: 81 nM
- IC50 (Human thrombocytes; [6]): 15 nM

Structure (SMILES): O=C(O)CC[C@H]1CC[C@H](n2ccn(-c3cnc4c(n3)CCNCC4)c2=O)CC1 [32 (6), 1-[trans-4-(2-Carboxyethyl)cyclohexyl]-3-(6,7,8,9-tetrahydro-5H-pyrazino[2,3-d]azepin-2-yl)-3H-imidazol-2-one]
- EC50 [1, 5]: 230 nM
- IC50 (Human thrombocytes; [6]): 31 nM

Structure (SMILES): CN1CCc2ccc(N3CCN([C@H]4CC[C@H](CCC(=O)O)CC4)C3=O)nc2CC1 [35 (1), 1-[trans-4-(2-Carboxyethyl)cyclohexyl]-3-(7-methyl-6,7,8,9-tetrahydro-5H-pyrido[2,3-d]azepin-2-yl)imidazolidin-2-one dihydrochloride×2H2 O]
- EC50 [1, 5]: 110 nM
- IC50 (Human thrombocytes; [6]): 17 nM

Structure (SMILES): CCN1CCc2ncc(N3CCN(c4ccc(OCC(=O)O)cc4)C3=O)nc2CC1 [36 (1), 1-[4-[(Carboxymethyl)oxy]phenyl]-3-(7-ethyl-6,7,8,9-tetrahydro-5H-pyrazino[2,3-d]azepin-2-yl)imidazolidin-2-one×1.75 HCl×H2 O]
- EC50 [1, 5]: 290 nM
- IC50 (Human thrombocytes; [6]): 77 nM

Structure (SMILES): CN1CCc2ncc(N3CCN([C@H]4CC[C@H](OCC(=O)O)CC4)C3=O)nc2CC1 [36 (2), 1-[trans-4-[(Carboxymethyl)oxy]cyclohexyl]-3-(7-methyl-6,7,8,9-tetrahydro-5H-pyrazino[2,3-d]azepin-2-yl)imidazolidin-2-one dihydrochloride]
- EC50 [1, 5]: 210 nM
- IC50 (Human thrombocytes; [6]): 19 nM

Structure (SMILES): CN1CCc2ncc(N3CCN(C4CCN(CCC(=O)O)CC4)C3=O)nc2CC1 [36 (3), 1-[1-(2-Carboxyethyl)piperidin-4-yl]-3-(7-methyl-6,7,8,9-tetrahydro-5H-pyrazino[2,3-d]azepin-2-yl)imidazolidin-2-one trihydrochloride]
- EC50 [1, 5]: 71 nM
- IC50 (Human thrombocytes; [6]): 18 nM

Structure (SMILES): CCN1CCc2ncc(N3CCN(c4ccc(CCC(=O)O)cc4)C3=O)nc2CC1 [36 (10), 1-[4-(2-Carboxyethyl)phenyl]-3-(7-ethyl-6,7,8,9-tetrahydro-5-pyrazino[2,3-d]azepin-2-yl)imidazolidin-2-one×1,4 HCl×2 H2 O]
- EC50 [1, 5]: 130 nM
- IC50 (Human thrombocytes; [6]): 32 nM

Structure (SMILES): CN1CCc2ncc(N3CC(=O)N([C@H]4CC[C@H](CCC(=O)O)CC4)C3=O)nc2CC1 [36 (12), 3-[trans-4-(2-Carboxyethyl)cyclohexyl]-1-(7-methyl-6,7,8,9-tetrahydro-5H-pyrazino[2,3-d]azepin-2-yl)-imidazolidine-2,4-dione hydrochloride]
- EC50 [1, 5]: 450 nM
- IC50 (Human thrombocytes; [6]): 13 nM

Structure (SMILES): Nc1nccc2cc(N3CCN(c4ccc(CCC(=O)O)cc4)C3=O)ccc12 [Example 1, 1-(1-Aminoisoquinolin-6-yl)-3-[4-(2-carboxyethyl)phenyl]-imidazolidin-2-one×1 water×1.2 acetic acid]
- EC50 [1, 3]: > 10000 nM
- IC50 (Human thrombocytes; [4]): 190 nM

Structure (SMILES): COC(=O)CCc1ccc(N2CCN(c3ccc4c(c3)CCNC4)C2=O)cc1 [Example 6, 1-[4-[2-(Methoxycarbonyl)ethyl]phenyl]-3-(1,2,3,4-tetrahydro-isoquinolin-6-yl)-imidazolidin-2-one-acetate]
- EC50 [1, 3]: 40 nM
- IC50 (Human thrombocytes; [4]): 110 nM

Structure (SMILES): CC(C)COC(=O)CCc1ccc(N2CCN(c3ccc4c(c3)CCNC4)C2=O)cc1 [Example 7, 1-[4-[2-(Isobutyloxycarbonyl)ethyl]phenyl]-3-(1,2,3,4-tetrahydroisoquinolin-6-yl)-imidazolidin-2-one-hydrochloride×1 water]
- duration of inhibition of collagen-induced thrombocyte aggregation ex vivo [2]: more than 5 hours

Structure (SMILES): O=C(O)CCc1ccc(N2CCN(c3ccc4c(c3)CCNCC4)C2=O)cc1 [Example 9, 1-[4-(2-Carboxyethyl)phenyl]-3-(2,3,4,5-tetrahydro-1H-3-benzazepin-7-yl)-imidazolidin-2-one]
- EC50 [1, 3]: 190 nM
- IC50 (Human thrombocytes; [4]): 85 nM

Structure (SMILES): CN1CCc2ncc(N3CCN([C@H]4CC[C@H](CCC(=O)O)CC4)C3=O)nc2CC1 [Example 32, 1-[trans-4-(2-Carboxyethyl)cyclohexyl]-3-(7-methyl-6,7,8,9-tetrahydro-5H-pyrazino[2,3-d]azepin-2-yl)imidazolidin-2-one×1 H2 O]
- EC50 [1, 5]: 100 nM
- IC50 (Human thrombocytes; [6]): 11 nM
